In patent publication US20260199297A1, “FERROPTOSIS INDUCERS TO TREAT CANCER” (The University of Toledo, priority 2022, published 2026):
Like-named read-outs stand apart in the source and are kept apart here.

Columns and labels:
[1] = tested on: NCI-H522 cells; assay: Cytotoxicity (methylene blue cell viability), NCI-H522; assay type: cell-based, human
Method: (§1) Having synthesized the CETZOLE analogs, their cytotoxic activity was evaluated. […] NCI-H522 RV-GFP is the corresponding control with RV-GFP tag, but without SLC7A11 overexpression. […] The cytotoxicity screening was conducted as described previously.
(§2) Cell lines were cultured in a humidified atmosphere containing 10% CO2 in Dulbecco's modified Eagle's medium (Mediatech, Inc) supplemented with 10% fetal bovine serum (Atlanta Biologicals). Cell types used MEFs, HT1080 (human fibrosarcoma cells), NARF2 (osteosarcoma), WI-38 (human embryonic lung fibroblast), MDA MB 231 (breast cancer), HCT-116 (human colon), and NCI-H522 (Non-Small Cell Lung Cancer) cell lines. To determine viability throughout these examples, 5,000 cells were plated per well of a 96-well plate and drugs were added 1 day later. Cells were stained 1 to 3 days later with a saturated solution of methylene blue in 50% ethanol. Plates were rinsed and retained dye was quantified by spectrophotometry. Absorbance was normalized to DMSO and given as 1 or 100% for cell viability. Results are representative of at least two independent experiments. Statistical significance was assessed using the Student's t test. All commercially available chemicals were obtained from Cayman Chemicals unless otherwise noted.

[2] = tested on: NCI-H522 GFP-SLC7A11 #8 cells; assay: Cytotoxicity (methylene blue cell viability), NCI-H522 clone overexpressing GFP-SLC7A11; assay type: cell-based, human
Method: as §1, §2

[3] = tested on: NCI-H522 RV-GFP cells; assay: Cytotoxicity (methylene blue cell viability), NCI-H522 RV-GFP control clone; assay type: cell-based, human; details: Table 1, control clone with RV-GFP tag, read-out: Half maximal inhibitory concentration (IC50), NCI-H522 Rv-GFP
Method: as §1, §2

[4] = tested on: HT-1080 cells; assay: Cytotoxicity (methylene blue cell viability), HT-1080; assay type: cell-based, human
Method: as §1, §2

[5] = tested on: NARF2 cells; assay: Cytotoxicity (methylene blue cell viability), NARF2; assay type: cell-based, human; details: read-out: Half maximal inhibitory concentration (IC50), NARF2
Method: as §1, §2

[6] = tested on: MDA-MB-231 cells; assay: Cytotoxicity (methylene blue cell viability), MDA-MB-231; assay type: cell-based
Method: as §1, §2

[7] = tested on: WI38 cells; assay: Cytotoxicity on normal cell line WI38; assay type: cell-based, human
Method: (§3) To determine cytotoxicity at a therapeutically more relevant concentration, cells were treated at a single concentration of […] (FIG. 12).
as §2

[8] = tested on: MEFs (Mouse Embryonic Fibroblasts); assay: Cytotoxicity on normal cell line MEFs; assay type: cell-based; details: read-out: Half maximal inhibitory concentration (IC50), Normal Cell Line Mefs
Method: as §3, §2

[9] = tested on: NCI-H522, NCI-H522 GFP-SLC7A11 #8, NCI-H522 RV-GFP, HT-1080, NARF2 and MDA-MB 231 cell lines; assay: Cytotoxicity screening across the tested cell lines; assay type: cell-based; details: summary over all tested cell lines; read-out: IC50 values against the tested cell lines
Method: as §1, §2

[10] = tested on: NCI-H522 and HT-1080 cancer cell lines, WI38 and MEFs normal cell lines; assay: Selective cytotoxicity assay at a single concentration; assay type: cell-based; parameters: dose or concentration left out as unconfirmed; details: NCI-H522, HT-1080, WI38, MEFs
Method: Overall, WI38 cells were the most tolerant to the treatment, whereas MEF cells were partially tolerant and relatively less sensitive than both NCI-H522 and HT-1080 cells. To determine cytotoxicity at a therapeutically more relevant concentration, cells were treated at a single concentration of […] (FIG. 12).
as §2, with “noted. Compound CETZOLE 1 and the analogs were synthesized as highlighted.” for “noted.”

[11] = tested on: protein bands between 25 kD to 38 kD; assay: Competitive binding assay against probe PPd (in-gel fluorescence); parameters: competition of PPd-labelled protein bands, dose-dependent: dose or concentration left out as unconfirmed; details: for competition of PPd-labelled protein bands by known ferroptosis inducers: 20 μM concentration, bands 25 kD to 38 kD
[12] = tested on: NCI-H522 cells; assay: Flow cytometry BODIPY-C11 lipid ROS measurement; assay type: cell-based, human; details: for speed of cell death (area under graph): NCI-H522; for lipid peroxidation compared to DMSO: NCI-H522, BODIPY-C11, 3 hours
Method: The total cell counts are represented by the area under the graph.
NCI-H522 cells were seeded at 1.5×10^5 cells per 9-cm plate. The next media was replaced with fresh media before treated with drugs along with BODIPY581/591-C11 dye (0.5 μM) (Thermo Fisher). […], and resuspended in 2% FBS containing 1×PBS. Cells were analyzed in FITC channel using a BD LSR Fortessa FAC Scanner. Twenty thousand events per condition were analyzed from three independent samples. The experiments were performed twice, each time with triplicate samples (n=6). Collected data were processed with FlowJo v10 software. Lipid ROS measurement in TR9-7 or NARF2 cells was performed similarly at the indicated conditions as mentioned in the respective figure legends. Where appropriate, dead cells were excluded by gating. When gates were applied, they were identical across samples within an experiment.

[13] = tested on: NCI-H522 cells; assay type: cell-based; details: human, 3 days
From the text: FIGS. 10A-10C: Results of live cell imaging.
FIG. 16: Evaluation of ferroptosis-inducing character of CETZOLE probes. A three-day ferroptosis rescue assay of NCI-H522 cells treated with DMSO, 1, RSL3, and CETZOLE analogs, and liproxstatin-1 co-treatment, showing significant ferroptosis inducing probes.
The live cell montage images in FIG. 10A show notable ferroptosis-related morphological changes, such as membrane breakage and floating cell debris in the medium. The NCI-H522 cell viability improved overall when cells were co-treated with the radical scavenger liproxstatin-1 (FIG. 10C). […] To confirm this, flow-cytometry was performed to quantify lipid peroxidation using redox-active BODIPY-C11 (FIGS. 11A-11E).
Overall, CETZOLE probes do induce radical-mediated cell death and are therefore indeed ferroptotic agents.
as §2, with “noted. Compound CETZOLE 1 and the analogs were synthesized as highlighted.” for “noted.”

[14] = tested on: 60 human cancer cell lines; assay: NCI 60 human cancer cell line assay, single dose; assay type: cell-based; details: single dose of 10 μM, 60 cell lines
Method: The cell lines used in this assay belonged to leukemia, non-small-cell lung cancer, colon cancer, CNS cancer, melanoma, ovarian cancer, renal cancer, prostate cancer, and breast cancer. The compounds were first tested at a single dose of 10 μM.

With `COC(=O)c1ccc([C@@H]2c3[nH]c4ccccc4c3C[C@@H](C(=O)OC)N2C(=O)CCl)cc1` [RSL3, reference compound] as the compound, how does the IC50 ([1]; Table 1, NCI-H522 cancer cell line, read-out: Half maximal inhibitory concentration (IC50), NCI-H522) read?
Its IC50 is 1100 ± 890 nM.

What about the IC50 ([1]; Table 2, read-out: Half maximal inhibitory concentration (IC50), Cancer Cell Line NCI-H522) of the same compound?
Its IC50 is 1100 ± 890 nM.

And the IC50 ([2]; Table 1, NCI-H522 clone overexpressing GFP-tagged SLC7A11, read-out: Half maximal inhibitory concentration (IC50), NCI-H522 GFP-SCL7A11 #8)?
The IC50 was 2840 ± 900 nM.

And the IC50 [3]?
The IC50 was 310 ± 40 nM.

What about the IC50 ([4]; Table 1, HT-1080 fibrosarcoma cell line, read-out: Half maximal inhibitory concentration (IC50), HT-1080) of the same compound?
Its IC50 is 140 ± 80 nM.

What about the IC50 ([4]; Table 2, read-out: Half maximal inhibitory concentration (IC50), Cancer Cell Line HT1080) of the same compound?
The IC50 was 140 ± 100 nM.

And the IC50 ([5]; Table 1, NARF2 osteosarcoma cells)?
Its IC50 is 2460 ± 760 nM.

And the IC50 ([6]; Table 1, MDA-MB-231 breast cancer cell line, read-out: Half maximal inhibitory concentration (IC50), MDA-MB-231)?
Its IC50 is 220 ± 20 nM.

And the IC50 ([7]; Table 2, lung tissue fibroblast, read-out: Half maximal inhibitory concentration (IC50), Normal Cell Line WI38)?
Its IC50 is 50 ± 10 nM.

What about the IC50 ([8]; Table 2, Mouse Embryonic Fibroblasts) of the same compound?
The IC50 was 40 ± 20 nM.

And the IC50 [9]?
Its IC50 is 140 to 2840 nM.

And the “cell death at a single concentration” value [10]?
The value was “killed all cell lines indiscriminately”.

And the “competition of PPd-labelled protein bands by known ferroptosis inducers” value [11]?
Its value is “compete out the same protein bands”.

Which results are given for `C#Cc1nc(C2=C(C)C(O)CC2)cs1` (racemic) [CETZOLE 1, 3-(2-Ethynylthiazol-4-yl)-2-methylcyclopent-2-en-1-ol, reference compound]?
IC50 ([1]; Homo sapiens, NCI-H522, read-out: Half maximal inhibitory concentration (IC50), Cancer Cell Line NCI-H522): 2500 ± 320 nM; IC50 ([1]; Homo sapiens, NCI-H522, read-out: Half maximal inhibitory concentration (IC50), NCI-H522): 2560 ± 930 nM; IC50 ([1]; Homo sapiens, NCI-H522, read-out: IC50, NCI-H522): 2500 ± 320 nM; IC50 ([2]; Homo sapiens, NCI-H522, read-out: Half maximal inhibitory concentration (IC50), NCI-H522 GFP-SCL7A11 #8): 10300 ± 3600 nM; IC50 ([4]; Homo sapiens, HT-1080, read-out: Half maximal inhibitory concentration (IC50), Cancer Cell Line HT1080): 3070 ± 1300 nM; IC50 ([4]; Homo sapiens, HT-1080, read-out: Half maximal inhibitory concentration (IC50), HT-1080): 3070 ± 1300 nM; IC50 ([4]; Homo sapiens, HT-1080, read-out: IC50, HT-1080): 960 ± 110 nM; IC50 ([5]; Homo sapiens): 14900 ± 1300 nM; IC50 ([6]; Homo sapiens, MDA-MB-231, read-out: Half maximal inhibitory concentration (IC50), MDA-MB-231): 6280 ± 730 nM; IC50 ([6]; Homo sapiens, MDA-MB-231, read-out: IC50, MDA-MB-231): 3200 ± 200 nM; IC50 ([7]; Homo sapiens, WI-38, read-out: Half maximal inhibitory concentration (IC50), Normal Cell Line WI38): 2510 ± 40 nM; IC50 ([8]; Mus musculus, Fibroblast): 2410 ± 980 nM; speed of cell death (area under graph) [12]: induced slower cell death; lipid peroxidation compared to DMSO [12]: induced lipid peroxidation; competition of PPd-labelled protein bands by known ferroptosis inducers [11]: compete out the same protein bands; competition of PPd-labelled protein bands, dose-dependent ([11]; three bands 25 kD to 38 kD): completely competed out

With `C#Cc1nc(C2=C(C)/C(=N/OCc3ccccc3)CC2)cs1` [compound 23, (E)-3-(2-Ethynylthiazol-4-yl)-2-methylcyclopent-2-en-1-one O-benzyl oxime] as the compound, how does the IC50 ([1]; Homo sapiens, NCI-H522, Table 2, read-out: Half maximal inhibitory concentration (IC50), Cancer Cell Line NCI-H522) read?
The IC50 was 1360 ± 110 nM.

And the IC50 ([1]; Homo sapiens, Table 1, NCI-H522 cancer cell line, read-out: Half maximal inhibitory concentration (IC50), NCI-H522)?
Its IC50 is 1360 ± 110 nM.

What about the IC50 ([2]; Homo sapiens, Table 1, NCI-H522 clone overexpressing GFP-tagged SLC7A11, read-out: Half maximal inhibitory concentration (IC50), NCI-H522 GFP-SCL7A11 #8) of the same compound?
Its IC50 is 2410 ± 1160 nM.

What about the IC50 ([3]; Homo sapiens, NCI-H522) of the same compound?
Its IC50 is 2540 ± 440 nM.

And the IC50 ([4]; Homo sapiens, HT-1080, Table 2, read-out: Half maximal inhibitory concentration (IC50), Cancer Cell Line HT1080)?
The IC50 was 810 ± 140 nM.

What about the IC50 ([4]; Homo sapiens, Table 1, HT-1080 fibrosarcoma cell line, read-out: Half maximal inhibitory concentration (IC50), HT-1080) of the same compound?
The IC50 was 810 ± 140 nM.

What about the IC50 ([5]; Homo sapiens, Table 1, NARF2 osteosarcoma cells) of the same compound?
The IC50 was 19300 ± 5900 nM.

And the IC50 ([6]; Homo sapiens, Table 1, MDA-MB-231 breast cancer cell line, read-out: Half maximal inhibitory concentration (IC50), MDA-MB-231)?
Its IC50 is 4170 ± 390 nM.

What about the IC50 ([7]; Homo sapiens, WI-38, Table 2, lung tissue fibroblast, read-out: Half maximal inhibitory concentration (IC50), Normal Cell Line WI38) of the same compound?
The IC50 was 2510 ± 810 nM.

What about the IC50 ([8]; Fibroblast, Table 2, Mouse Embryonic Fibroblasts) of the same compound?
Its IC50 is 1090 ± 460 nM.

And the “cell viability on liproxstatin-1 co-treatment (rescue)” value [13]?
Its value is 85%.

And the “speed of cell death (area under graph)” value [12]?
Its value is “induced slower cell death”.

What about the “lipid peroxidation compared to DMSO” value [12] of the same compound?
The value was “induced lipid peroxidation”.

What about the “cell death at a single concentration” value [10] of the same compound?
The value was “did not induce cell death”.

And the mean percentage growth [14]?
Its mean percentage growth is 27.24.

`C#CCCC(=O)Nc1ccc(C(=O)c2ccc(NC(=O)CO/N=C3\CC(c4csc(C#C)n4)=C(C)C3O)cc2)cc1` (stereo not drawn) [PPe, (E)-N-(4-(4-(2-(((4-(2-Ethynylthiazol-4-yl)-2-hydroxy-3-methylcyclopent-3-en-1-ylidene)amino)oxy)acetamido)benzoyl)phenyl)pent-4-ynamide] was tested. Which IC50 ([1]; Homo sapiens, NCI-H522, Table 3, probes and negative controls, read-out: IC50, NCI-H522) did it give?
Its IC50 is 2600 ± 110 nM.

What about the IC50 ([4]; Homo sapiens, HT-1080, Table 3, probes and negative controls, read-out: IC50, HT-1080) of the same compound?
The IC50 was 1200 ± 10 nM.

What about the IC50 ([6]; Homo sapiens, MDA-MB-231, Table 3, probes and negative controls, read-out: IC50, MDA-MB-231) of the same compound?
The IC50 was 1330 ± 20 nM.

What about the “cell viability on liproxstatin-1 co-treatment (rescue)” value [13] of the same compound?
The value was 45%.
